Measured values: patent publication US20060020004A1, “Isoxazolidine compounds for treatment of bacterial infections” (Infinity Pharmaceuticals, Inc., priority 2004, published 2006)
≈ marks a conversion by molar mass, not a printed value.

How the values were obtained:
[1] = system: Staphylococcus aureus (Smith) ATCC 19636; experiment: MIC determination, S. aureus; assay type: cell-based; details: S. aureus ATCC 19636, 17 h; for MIC: Staphylococcus aureus, ATCC19636
Description: (§1) Susceptibility testing for bacterial cultures is performed according to the National Council for Clinical Laboratory Standards (NCCLS) protocol M100-S12, “Performance Standards for Antimicrobial Susceptibility Testing.” The bacterial strains recommended by NCCLS were obtained from the American Type Culutre Collection (ATCC) (Table) and were maintained on Mueller Hinton (MHA) agar plates plus or minus 3% lysed horse blood (see Table). The bacteria were grown in Cation adjusted Mueller Hinton Broth (CaMHB) for liquid growth and susceptibility testing. S. cerevisiae (yeast) is grown in yeast peptone dextrose (YPD) media.
(§2) All bacterial cultures were grown at 37 degrees Celsius. Fresh colonies of S. aureus and MRSA were inoculated into liquid media and grown overnight and diluted the next day to grow to mid-log (Table 2). E. faecalis and S. pneumonia mid-log cultures were started directly from colony on plates. To attain mid-log growth, cultures were grown to an optical density (OD) at A590 of 0.2-0.8 (see Table 2) and then diluted to proper OD to obtain 5×10^5 cells/mL.
(§3) Diluted bacterial cultures are added to compound plates with compound diluted 2-fold from 100 μg/mL to 0.2 μg/mL final concentration in DMSO. Control antibiotics are also added: vancomycin, linezolid, and penicillin. In 384 well plates, 0.5 μL compound is added followed by addition of 50 μL of culture. DMSO alone is included as a control. Plates incubated at 37 degrees Celsius for 17-24 h.
(§4) Plates with cells mixed with compounds are incubated for 17 h for S. aureus and yeast, 24 h for MRSA, and all Enterococcus and Streptococcus strains. Yeast plates are incubated […].
(§5) Viability is determined by reading plates at A590 to determine optical density of treated and untreated cells and determining growth inhibition relative to controls.

[2] = system: Methicillin resistant S. aureus ATCC 33591; experiment: MIC determination, MRSA; assay type: cell-based, Staphylococcus aureus; details: MRSA ATCC 33591, 24 h; for MIC: Staphylococcus aureus
Description: as §1, §2, §3, §4, §5

[3] = system: Penicillin-res. S. pneumonia ATCC 700671; experiment: MIC determination, PRSP; assay type: cell-based, Streptococcus pneumonia; details: ATCC 700671, 24 h; for MIC: Streptococcus pneumoniae
Description: as §1, §2, §3, §4, §5

[4] = system: Streptococcus pneumonia ATCC 49619; experiment: MIC determination, S. pneumonia; assay type: cell-based; details: for MIC S. pneuomiae: ATCC 49619, 24 h; for MIC: Streptococcus pneumoniae, ATCC49619, 24 h, read-out: MIC S. pneuomiae
Description: as §1, §2, §3, §4, §5

[5] = system: Enterococcus faecalis ATCC 29212; experiment: MIC determination, E. faecalis; assay type: cell-based; details: ATCC 29212, 24 h
Description: as §1, §2, §3, §4, §5

[6] = system: Van-intermediate E. faecalis ATCC 51299 / Van-resistant E. faecalis ATCC 700221; experiment: MIC determination, VIRE/VRE; assay type: cell-based, Enterococcus faecalis; details: ATCC 51299 / 700221, 24 h
Description: The MICs were determined using a broth micro-dilution assay in accordance with that recommended by the National Committee for Clinical Laboratory Standards (NCCLS). The final bacterial inoculate contained approximately 5×10^5 cfu/mL and the plates were incubated at 35° C. for 18 h in ambient air (Streptococci in 5% CO2). The MIC was defined as the lowest drug concentration that prevented visible growth.
as §1, §2, §3, §4, §5

SMILES | MIC S. aureus [1] | MIC MRSA [2] | MIC PRSP [3] | further results
CC(O)C1ON(Cc2ccc(Oc3ccccc3)cc2)C(C(=O)NCCc2c[nH]c3ccccc23)C1CO (centres unmarked) | ** (the MIC is 5-90 μg/mL) | ** (the MIC is 5-90 μg/mL) | ** (the MIC is 5-90 μg/mL) | –
Cc1ccc(C#Cc2ccc(CN3OC(CN)CC3C(=O)NCCc3c[nH]c4ccccc34)cc2)cc1 (centres unmarked) | ** (the MIC is 5-90 μg/mL) | ** (the MIC is 5-90 μg/mL) | ** (the MIC is 5-90 μg/mL) | –
CC(O)C1ON(Cc2ccc(-c3ccc(OC4CCCCO4)cc3)cc2)C(C(=O)NCCc2c[nH]c3ccccc23)C1CO (centres unmarked) | ** (the MIC is 5-90 μg/mL) | ** (the MIC is 5-90 μg/mL) | – | MIC S. pneuomiae [4]: ** (the MIC is 5-90 μg/mL)
Cc1ccc(C#Cc2ccc(CN3O[C@H]([C@@H](C)O)[C@H](CO)[C@@H]3CNCCc3c[nH]c4ccccc34)cc2)cc1.Cl | – | – | – | MIC [1]: 5 to 90 µg/mL; MIC [2]: 5 to 90 µg/mL; MIC [4]: > 90 µg/mL; MIC [3]: > 90 µg/mL
CC(=O)c1ccc(-c2ccc(CN3OC(C(C)O)C(CO)C3C(=O)NCCc3c[nH]c4ccccc34)cc2)cc1 (centres unmarked) | ** (the MIC is 5-90 μg/mL) | ** (the MIC is 5-90 μg/mL) | * (the MIC is >90 μg/mL) | MIC E. faecalis [5]: ** (the MIC is 5-90 μg/mL)
CC(O)C1ON(Cc2ccc(C#Cc3cccc(O)c3)cc2)C(C(=O)NCCc2c[nH]c3ccccc23)C1CO (centres unmarked) | ** (the MIC is 5-90 μg/mL) | ** (the MIC is 5-90 μg/mL) | ** (the MIC is 5-90 μg/mL) | –
Cc1ccc(C#Cc2ccc(CN3O[C@H]([C@@H](C)O)[C@H](CO)[C@@H]3C(=O)NCCCNC(=O)OC(C)(C)C)cc2)cc1 | – | – | – | MIC [1]: 5 to 90 µg/mL (≈ 9.06 to 163 µM); MIC [2]: 5 to 90 µg/mL (≈ 9.06 to 163 µM); MIC [3]: 5 to 90 µg/mL (≈ 9.06 to 163 µM); MIC ([5]; Enterococcus faecalis, ATCC29212): 5 to 90 µg/mL (≈ 9.06 to 163 µM)
CCOCCCNC(=O)[C@H]1[C@@H](CO)[C@@H]([C@@H](C)O)ON1Cc1ccc(C#Cc2ccc(C)cc2)cc1 | – | – | – | MIC [1]: 5 to 90 µg/mL (≈ 10.4 to 187 µM); MIC [4]: 5 to 90 µg/mL (≈ 10.4 to 187 µM); MIC [3]: 5 to 90 µg/mL (≈ 10.4 to 187 µM)
Cc1ccc(C#Cc2ccc(CN3OC(C(C)O)C(CO)C3C(=O)NCCc3cnc[nH]3)cc2)cc1 (centres unmarked) | * (the MIC is >90 μg/mL) | ** (the MIC is 5-90 μg/mL) | – | MIC S. pneuomiae [4]: * (the MIC is >90 μg/mL)
CC(O)C1ON(Cc2ccc(C=Cc3ccc(C(F)(F)F)cc3)cc2)C(C(=O)NCCc2c[nH]c3ccccc23)C1CO (centres unmarked) | ** (the MIC is 5-90 μg/mL) | ** (the MIC is 5-90 μg/mL) | ** (the MIC is 5-90 μg/mL) | MIC S. pneuomiae [4]: ** (the MIC is 5-90 μg/mL)
CC(O)C1ON(CC2CCCCC2)C(C(=O)NCCc2c[nH]c3ccccc23)C1CO (centres unmarked) | ** (the MIC is 5-90 μg/mL) | * (the MIC is >90 μg/mL) | * (the MIC is >90 μg/mL) | MIC E. faecalis [5]: ** (the MIC is 5-90 μg/mL)
Cc1ccc(C#Cc2ccc(CN3O[C@H]([C@@H](C)O)[C@H](CO)[C@@H]3C(=O)NCCN3CCCC3)cc2)cc1 | – | – | – | MIC [1]: > 90 µg/mL; MIC [2]: > 90 µg/mL; MIC [3]: > 90 µg/mL
Cc1ccc(C#Cc2ccc(CN3OC(C(C)O)C(CO)C3C(=O)NCCc3c[nH]c4ccccc34)cc2)cc1 (centres unmarked) [drawing 206] | *** (the MIC is less than 5 μg/mL) | *** (the MIC is less than 5 μg/mL) | ** (the MIC is 5-90 μg/mL) | –
CC(O)C1ON(Cc2ccc(C=Cc3ccccc3)cc2)C(C(=O)NCCc2c[nH]c3ccccc23)C1CO (centres unmarked) [drawing 216] | *** (the MIC is less than 5 μg/mL) | *** (the MIC is less than 5 μg/mL) | ** (the MIC is 5-90 μg/mL) | –
CC(O)C1ON(Cc2ccc(C=Cc3ccccc3)cc2)C(C(=O)NCCc2c[nH]c3ccccc23)C1CO (centres unmarked) [drawing 219] | *** (the MIC is less than 5 μg/mL) | ** (the MIC is 5-90 μg/mL) | ** (the MIC is 5-90 μg/mL) | MIC S. pneuomiae [4]: ** (the MIC is 5-90 μg/mL); MIC E. faecalis [5]: * (the MIC is >90 μg/mL); MIC VIRE/VRE [6]: * (the MIC is >90 μg/mL)
Cc1ccc(C#Cc2ccc(CN3OCC(CO)C3C(=O)NCCc3c[nH]c4ccccc34)cc2)cc1 (centres unmarked) [drawing 221] | ** (the MIC is 5-90 μg/mL) | ** (the MIC is 5-90 μg/mL) | ** (the MIC is 5-90 μg/mL) | –
